Experimental data from ChEMBL document CHEMBL1275354, “Anticonvulsant activity of 2,4(1H)-diarylimidazoles in mice and rats acute seizure models” (Bioorg Med Chem, 2010).
Each block holds one compound with its values, some of them ahead of it. Active and inactive are the calls of the source. The calls are words filed in the database; no cut-off is given here.

Assays:
Mus musculus [1] = test: Neurotoxicity in albino CF1 mouse assessed as minimal motor impairment at 100 mg/kg, ip after 0.5 hrs by rotarod test; assay type: toxicity, organism-based; design: dose 100 mg/kg, route intraperitoneal; details: in vivo
Mus musculus [2] = test: Anticonvulsant activity in albino CF1 mouse assessed as protection against subcutaneous metrazole-induced seizures at 30 mg/kg, ip after 0.5 hrs; assay type: functional, organism-based; design: dose 30 mg/kg
Rattus norvegicus [3] = test: Anticonvulsant activity in albino Sprague-Dawley rat assessed as protection against maximal electroshock-induced seizures at 30 mg/kg, po after 2 hrs; assay type: functional, organism-based; design: dose 30 mg/kg
Mus musculus [4] = test: Neurotoxicity in albino CF1 mouse assessed as minimal motor impairment at 100 mg/kg, ip after 4 hrs by rotarod test; assay type: toxicity, organism-based; design: dose 100 mg/kg, route intraperitoneal; details: in vivo
Mus musculus [5] = test: Neurotoxicity in albino CF1 mouse assessed as minimal motor impairment at 300 mg/kg, ip after 4 hrs by rotarod test; assay type: toxicity, organism-based; design: dose 300 mg/kg, route intraperitoneal; details: in vivo
Mus musculus [6] = test: Neurotoxicity in albino CF1 mouse assessed as minimal motor impairment at 30 to 300 mg/kg, ip after 0.5 hrs by rotarod test; details: in vivo
Rattus norvegicus [7] = test: Anticonvulsant activity in albino Sprague-Dawley rat assessed as protection against maximal electroshock-induced seizures at 30 mg/kg, po after 0.25 hrs; assay type: functional, organism-based; design: dose 30 mg/kg
Mus musculus [8] = test: Anticonvulsant activity in albino CF1 mouse assessed as protection against subcutaneous metrazole-induced seizures at 300 mg/kg, ip after 0.5 hrs; assay type: functional, organism-based; design: dose 300 mg/kg
Mus musculus [9] = test: Anticonvulsant activity against maximal electroshock-induced seizures in ip dosed albino CF1 mouse assessed as minimum effective dose after 0.5 hrs; assay type: functional; details: read-out: MED
Mus musculus [10] = test: Anticonvulsant activity in albino CF1 mouse assessed as protection against maximal electroshock-induced seizures at 30 mg/kg, ip after 0.5 hrs; assay type: functional, organism-based; design: dose 30 mg/kg
Mus musculus [11] = test: Anticonvulsant activity in albino CF1 mouse assessed as protection against maximal electroshock-induced seizures at 300 mg/kg, ip after 4 hrs; assay type: functional, organism-based; design: dose 300 mg/kg
Rattus norvegicus [12] = test: Neurotoxicity in albino Sprague-Dawley rat assessed as minimal motor impairment at 30 mg/kg, po by rotarod test; assay type: toxicity, organism-based; design: dose 30 mg/kg, route oral; details: in vivo
Mus musculus [13] = test: Anticonvulsant activity against subcutaneous metrazole-induced seizures in ip dosed albino CF1 mouse assessed as minimum effective dose after 4 hrs; assay type: functional; details: albino CF1, 4 h, read-out: MED
Mus musculus [14] = test: Anticonvulsant activity against maximal electroshock-induced seizures in ip dosed albino CF1 mouse assessed as minimum effective dose after 4 hrs; assay type: functional; details: read-out: MED
Mus musculus [15] = test: Anticonvulsant activity in albino CF1 mouse assessed as protection against subcutaneous metrazole-induced seizures at 100 mg/kg, ip after 4 hrs; assay type: functional, organism-based; design: dose 100 mg/kg
Mus musculus [16] = test: Neurotoxicity in ip dosed albino CF1 mouse assessed as minimum dose required to cause toxicity after 4 hrs by rotarod test; assay type: organism-based; details: in vivo
Mus musculus [17] = test: Anticonvulsant activity in albino CF1 mouse assessed as protection against maximal electroshock-induced seizures at 30 mg/kg, ip after 4 hrs; assay type: functional, organism-based; design: dose 30 mg/kg
Mus musculus [18] = test: Neurotoxicity in albino CF1 mouse assessed as minimal motor impairment at 300 mg/kg, ip after 0.5 hrs by rotarod test; assay type: toxicity, organism-based; design: dose 300 mg/kg, route intraperitoneal; details: in vivo
Mus musculus [19] = test: Anticonvulsant activity in albino CF1 mouse assessed as protection against maximal electroshock-induced seizures at 100 mg/kg, ip after 0.5 hrs; assay type: functional, organism-based; design: dose 100 mg/kg
Mus musculus [20] = test: Anticonvulsant activity in albino CF1 mouse assessed as protection against maximal electroshock-induced seizures at 300 mg/kg, ip after 0.5 hrs; assay type: functional, organism-based; design: dose 300 mg/kg
Mus musculus [21] = test: Neurotoxicity in albino CF1 mouse assessed as minimal motor impairment at 30 mg/kg, ip after 0.5 hrs by rotarod test; assay type: toxicity, organism-based; design: dose 30 mg/kg, route intraperitoneal; details: in vivo
Mus musculus [22] = test: Neurotoxicity in albino CF1 mouse assessed as minimal motor impairment at 30 mg/kg, ip after 4 hrs by rotarod test; assay type: toxicity, organism-based; design: dose 30 mg/kg, route intraperitoneal; details: in vivo
Rattus norvegicus [23] = test: Anticonvulsant activity in albino Sprague-Dawley rat assessed as protection against maximal electroshock-induced seizures at 30 mg/kg, po after 0.5 hrs; assay type: functional, organism-based; design: dose 30 mg/kg
Mus musculus [24] = test: Anticonvulsant activity in albino CF1 mouse assessed as protection against subcutaneous metrazole-induced seizures at 100 mg/kg, ip after 0.5 hrs; assay type: functional, organism-based; design: dose 100 mg/kg
Mus musculus [25] = test: Anticonvulsant activity in albino CF1 mouse assessed as protection against subcutaneous metrazole-induced seizures at 300 mg/kg, ip after 4 hrs; assay type: functional, organism-based; design: dose 300 mg/kg
Rattus norvegicus [26] = test: Anticonvulsant activity in albino Sprague-Dawley rat assessed as protection against maximal electroshock-induced seizures at 30 mg/kg, po after 4 hrs; assay type: functional, organism-based; design: dose 30 mg/kg
Mus musculus [27] = test: Neurotoxicity in ip dosed albino CF1 mouse assessed as minimum dose required to cause toxicity after 0.5 hrs by rotarod test; assay type: organism-based; details: in vivo
Mus musculus [28] = test: Anticonvulsant activity in albino CF1 mouse assessed as protection against subcutaneous metrazole-induced seizures at 30 mg/kg, ip after 4 hrs; assay type: functional, organism-based; design: dose 30 mg/kg
Mus musculus [29] = test: Anticonvulsant activity against subcutaneous metrazole-induced seizures in ip dosed albino CF1 mouse assessed as minimum effective dose after 0.5 hrs; assay type: functional; details: albino CF1, 0.5 h, read-out: MED
Rattus norvegicus [30] = test: Anticonvulsant activity in albino Sprague-Dawley rat assessed as protection against maximal electroshock-induced seizures at 30 mg/kg, po after 1 hr; assay type: functional, organism-based; design: dose 30 mg/kg
Mus musculus [31] = test: Anticonvulsant activity in albino CF1 mouse assessed as protection against subcutaneous metrazole-induced seizures at 125 mg/kg, ip after 0.25 hrs; assay type: functional, organism-based; design: dose 125 mg/kg
Mus musculus [32] = test: Anticonvulsant activity in albino CF1 mouse assessed as protection against maximal electroshock-induced seizures at 230 mg/kg, ip after 0.25 hrs; assay type: functional, organism-based; design: dose 230 mg/kg
Mus musculus [33] = test: Neurotoxicity in albino CF1 mouse assessed as minimal motor impairment at 350 mg/kg, ip after 0.25 hrs by rotarod test; assay type: toxicity, organism-based; design: dose 350 mg/kg, route intraperitoneal; details: in vivo
Mus musculus [34] = test: Anticonvulsant activity ip dosed albino CF1 mouse assessed as protection against subcutaneous metrazole-induced seizures after 0.25 hrs; assay type: functional; details: albino CF1, 0.25 h
Mus musculus [35] = test: Neurotoxicity in ip dosed albino CF1 mouse assessed as minimal motor impairment after 0.25 hrs by rotarod test; assay type: toxicity, organism-based; details: in vivo
Mus musculus [36] = test: Anticonvulsant activity ip dosed albino CF1 mouse assessed as protection against maximal electroshock-induced seizures after 0.25 hrs; assay type: functional
[37] = target: Sodium channel protein type 2 subunit alpha (Homo sapiens, UniProt Q99250); test: Inhibition of human NaV1.2 expressed in HEK cells at -60 mV holding potential by patch clamp recording technique; assay type: cell-based, HEK293
Mus musculus [38] = test: Neurotoxicity in albino CF1 mouse assessed as minimal motor impairment at 30 to 300 mg/kg, po after 4 hrs by rotarod test; assay type: toxicity, organism-based; design: dose 30-300 mg/kg, route oral; details: in vivo
Mus musculus [39] = test: Neurotoxicity in albino CF1 mouse assessed as minimal motor impairment at 500 mg/kg, ip after 0.25 hrs by rotarod test; assay type: toxicity, organism-based; design: dose 500 mg/kg, route intraperitoneal; details: in vivo
Mus musculus [40] = test: Anticonvulsant activity in albino CF1 mouse assessed as protection against subcutaneous metrazole-induced seizures at 250 mg/kg, ip after 0.25 hrs; assay type: functional, organism-based; design: dose 250 mg/kg
Mus musculus [41] = test: Anticonvulsant activity in albino CF1 mouse assessed as protection against maximal electroshock-induced seizures at 100 mg/kg, ip after 4 hrs; assay type: functional, organism-based; design: dose 100 mg/kg
Mus musculus [42] = species: Mus musculus; test: Protective index, ratio of TD50 for albino CF1 mouse by rotarod test to ED50 for albino CF1 mouse by maximal electroshock seizures test; assay type: functional

Sodium channel protein type 2 subunit alpha, sequence (Q99250 whole entry): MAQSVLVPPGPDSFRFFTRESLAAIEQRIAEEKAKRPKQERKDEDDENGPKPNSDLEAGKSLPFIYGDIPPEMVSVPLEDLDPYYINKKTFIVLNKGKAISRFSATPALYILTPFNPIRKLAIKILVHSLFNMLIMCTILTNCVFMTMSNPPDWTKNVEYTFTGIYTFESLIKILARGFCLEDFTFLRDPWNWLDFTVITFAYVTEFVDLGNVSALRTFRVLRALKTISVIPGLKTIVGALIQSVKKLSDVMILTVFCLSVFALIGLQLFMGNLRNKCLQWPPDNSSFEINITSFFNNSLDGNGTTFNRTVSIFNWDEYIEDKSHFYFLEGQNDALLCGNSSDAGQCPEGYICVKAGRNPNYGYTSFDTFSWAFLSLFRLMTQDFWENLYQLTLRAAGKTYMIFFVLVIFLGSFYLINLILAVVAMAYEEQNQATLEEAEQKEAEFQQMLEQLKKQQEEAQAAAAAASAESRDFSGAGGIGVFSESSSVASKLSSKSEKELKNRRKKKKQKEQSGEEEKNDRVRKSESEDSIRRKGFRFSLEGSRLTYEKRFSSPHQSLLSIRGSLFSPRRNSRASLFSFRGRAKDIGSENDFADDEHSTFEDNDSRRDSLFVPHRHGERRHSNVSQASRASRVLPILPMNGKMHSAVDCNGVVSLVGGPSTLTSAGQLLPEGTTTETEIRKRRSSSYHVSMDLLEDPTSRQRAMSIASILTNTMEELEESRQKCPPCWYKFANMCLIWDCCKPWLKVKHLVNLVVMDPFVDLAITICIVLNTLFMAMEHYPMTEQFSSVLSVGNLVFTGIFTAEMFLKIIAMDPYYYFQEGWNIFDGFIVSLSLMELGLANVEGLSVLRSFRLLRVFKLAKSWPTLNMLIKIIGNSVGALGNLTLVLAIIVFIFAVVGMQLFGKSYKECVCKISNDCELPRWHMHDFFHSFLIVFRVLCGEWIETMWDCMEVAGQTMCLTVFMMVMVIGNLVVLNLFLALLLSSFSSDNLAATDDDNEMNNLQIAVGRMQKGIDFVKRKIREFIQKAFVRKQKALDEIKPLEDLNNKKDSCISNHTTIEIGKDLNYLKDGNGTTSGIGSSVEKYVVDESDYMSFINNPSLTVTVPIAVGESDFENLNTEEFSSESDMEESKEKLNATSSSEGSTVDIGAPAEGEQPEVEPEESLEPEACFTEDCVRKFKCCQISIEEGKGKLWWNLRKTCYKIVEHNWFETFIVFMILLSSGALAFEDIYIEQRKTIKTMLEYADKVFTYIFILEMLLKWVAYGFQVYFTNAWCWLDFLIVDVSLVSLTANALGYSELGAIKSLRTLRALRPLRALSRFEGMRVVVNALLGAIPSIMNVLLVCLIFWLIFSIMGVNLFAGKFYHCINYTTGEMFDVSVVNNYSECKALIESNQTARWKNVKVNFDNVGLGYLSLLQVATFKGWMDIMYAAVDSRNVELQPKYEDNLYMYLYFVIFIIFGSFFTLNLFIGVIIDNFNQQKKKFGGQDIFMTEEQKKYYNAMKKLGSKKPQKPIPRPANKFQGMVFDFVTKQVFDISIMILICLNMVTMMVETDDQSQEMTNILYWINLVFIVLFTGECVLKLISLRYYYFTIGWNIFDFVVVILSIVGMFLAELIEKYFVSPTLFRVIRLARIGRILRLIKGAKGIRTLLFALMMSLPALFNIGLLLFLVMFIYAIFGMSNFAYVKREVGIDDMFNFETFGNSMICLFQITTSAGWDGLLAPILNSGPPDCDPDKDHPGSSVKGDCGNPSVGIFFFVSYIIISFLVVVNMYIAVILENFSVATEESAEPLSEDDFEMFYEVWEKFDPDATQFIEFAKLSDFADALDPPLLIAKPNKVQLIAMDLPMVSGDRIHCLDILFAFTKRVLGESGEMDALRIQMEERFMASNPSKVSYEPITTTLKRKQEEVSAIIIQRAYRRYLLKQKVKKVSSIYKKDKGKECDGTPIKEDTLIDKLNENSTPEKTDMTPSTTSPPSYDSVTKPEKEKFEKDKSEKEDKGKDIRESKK

Structure (SMILES): COc1ccc(-c2c[nH]c(-c3ccccc3)n2)cc1
- Activity (Mus musculus [1]): Non-toxic
- Activity (Mus musculus [2]): inactive
- Activity (Rattus norvegicus [3]): inactive
- Activity (Mus musculus [4]): Non-toxic
- Activity (Mus musculus [5]): Toxic
- Activity (Mus musculus [6]): Non-toxic
- Activity (Rattus norvegicus [7]): inactive
- Activity (Mus musculus [8]): Active
- minimal effective dose (Mus musculus [9]): > 30 mg/kg
- Activity (Mus musculus [10]): inactive
- Activity (Mus musculus [11]): Active
- Activity (Rattus norvegicus [12]): Non-toxic
- minimal effective dose (Mus musculus [13]): > 300 mg/kg
- minimal effective dose (Mus musculus [14]): 100 mg/kg
- Activity (Mus musculus [15]): inactive
- MED (Mus musculus [16]): 100 mg/kg
- Activity (Mus musculus [17]): inactive
- Activity (Mus musculus [18]): Toxic
- Activity (Mus musculus [19]): Active
- Activity (Mus musculus [20]): Active
- Activity (Mus musculus [21]): Non-toxic
- Activity (Mus musculus [22]): Non-toxic
- Activity (Rattus norvegicus [23]): inactive
- Activity (Mus musculus [24]): inactive
- Activity (Mus musculus [25]): inactive
- Activity (Rattus norvegicus [26]): inactive
- MED (Mus musculus [27]): 100 mg/kg
- Activity (Mus musculus [28]): inactive
- minimal effective dose (Mus musculus [29]): 100 mg/kg
- Activity (Rattus norvegicus [30]): inactive

- IC50 [37]: 17.9 µM
Structure (SMILES): Clc1cccc(-c2c[nH]c(-c3ccccc3)n2)c1
- Activity (Mus musculus [31]): inactive
- Activity (Mus musculus [32]): Active
- Activity (Mus musculus [1]): Non-toxic
- Activity (Mus musculus [2]): inactive
- Activity (Rattus norvegicus [3]): inactive
- Activity (Mus musculus [4]): Non-toxic
- Activity (Mus musculus [5]): Non-toxic
- Activity (Mus musculus [33]): Non-toxic
- Activity (Mus musculus [6]): Non-toxic
- ED50 (Mus musculus [34]): > 250 mg/kg
- TD50 (Mus musculus [35]): > 500 mg/kg
- ED50 (Mus musculus [36]): 137 mg/kg
- Activity (Rattus norvegicus [7]): inactive
- Activity (Mus musculus [8]): inactive
- minimal effective dose (Mus musculus [9]): > 30 mg/kg
- Activity (Mus musculus [10]): inactive
- Activity (Mus musculus [11]): Active
- Activity (Rattus norvegicus [12]): Non-toxic
- minimal effective dose (Mus musculus [13]): > 300 mg/kg
- minimal effective dose (Mus musculus [14]): 100 mg/kg
- Activity (Mus musculus [15]): inactive
- MED (Mus musculus [16]): > 300 mg/kg
- Activity (Mus musculus [38]): Non-toxic
- Activity (Mus musculus [39]): Non-toxic
- Activity (Mus musculus [17]): inactive
- Activity (Mus musculus [40]): inactive
- Activity (Mus musculus [19]): Active
- Activity (Mus musculus [20]): Active
- Activity (Mus musculus [41]): inactive
- Activity (Mus musculus [21]): Non-toxic
- Activity (Mus musculus [22]): Non-toxic
- Activity (Rattus norvegicus [23]): inactive
- Activity (Mus musculus [24]): inactive
- Activity (Mus musculus [25]): inactive
- PI (Mus musculus [42]): >3.6
- Activity (Rattus norvegicus [26]): inactive
- MED (Mus musculus [27]): 100 mg/kg
- Activity (Mus musculus [28]): inactive
- minimal effective dose (Mus musculus [29]): > 300 mg/kg
- Activity (Rattus norvegicus [30]): inactive

Structure (SMILES): O=[N+]([O-])c1cccc(-c2nc(-c3ccccc3)c[nH]2)c1
- Activity (Mus musculus [1]): Non-toxic
- Activity (Mus musculus [2]): inactive
- Activity (Rattus norvegicus [3]): inactive
- Activity (Mus musculus [4]): Non-toxic
- Activity (Mus musculus [5]): Non-toxic
- Activity (Mus musculus [6]): Non-toxic
- Activity (Rattus norvegicus [7]): inactive
- Activity (Mus musculus [8]): inactive
- minimal effective dose (Mus musculus [9]): 100 mg/kg
- Activity (Mus musculus [10]): inactive
- Activity (Mus musculus [11]): Active
- Activity (Rattus norvegicus [12]): Non-toxic
- minimal effective dose (Mus musculus [13]): > 300 mg/kg
- minimal effective dose (Mus musculus [14]): 100 mg/kg
- Activity (Mus musculus [15]): inactive
- MED (Mus musculus [16]): > 300 mg/kg
- Activity (Mus musculus [38]): Non-toxic
- Activity (Mus musculus [17]): inactive
- Activity (Mus musculus [18]): Non-toxic
- Activity (Mus musculus [20]): Active
- Activity (Mus musculus [41]): inactive
- Activity (Mus musculus [21]): Non-toxic
- Activity (Mus musculus [22]): Non-toxic
- Activity (Rattus norvegicus [23]): inactive
- Activity (Mus musculus [24]): inactive
- Activity (Mus musculus [25]): inactive
- Activity (Rattus norvegicus [26]): inactive
- MED (Mus musculus [27]): > 300 mg/kg
- Activity (Mus musculus [28]): inactive
- minimal effective dose (Mus musculus [29]): > 300 mg/kg
- Activity (Rattus norvegicus [30]): inactive
